Data published in patent publication US20230348401A1, “Inhibitors of Glucose-6-phosphate Dehydrogenase and Uses Thereof” (The Trustees of Princeton University, priority 2020, published 2023).
Values joined by “and” are separate entries in the source; they are usually repeats but may differ in a detail not shown here. Equal values may be shown once.

These compounds were tested against G6PD (Homo sapiens, UniProt P11413) (assay: G6PD enzymatic activity by diaphorase-coupled assay). Conditions: not given.
Sequence of G6PD (P11413 28-515): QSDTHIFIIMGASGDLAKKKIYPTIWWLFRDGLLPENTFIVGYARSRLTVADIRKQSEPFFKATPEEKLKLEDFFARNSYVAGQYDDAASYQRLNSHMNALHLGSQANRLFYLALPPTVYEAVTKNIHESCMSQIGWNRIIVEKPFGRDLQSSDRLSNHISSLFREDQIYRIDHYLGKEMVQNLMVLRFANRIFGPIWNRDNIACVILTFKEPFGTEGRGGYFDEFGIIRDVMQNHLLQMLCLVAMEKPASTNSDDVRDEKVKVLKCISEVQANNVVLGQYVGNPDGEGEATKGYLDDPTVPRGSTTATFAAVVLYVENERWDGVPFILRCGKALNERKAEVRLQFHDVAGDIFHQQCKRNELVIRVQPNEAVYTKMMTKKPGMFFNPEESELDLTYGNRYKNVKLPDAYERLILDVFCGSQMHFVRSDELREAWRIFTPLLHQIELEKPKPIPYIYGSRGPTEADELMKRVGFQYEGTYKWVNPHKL

IC50	SMILES
< 1 µM	N#Cc1cc(Nc2ncc3c(n2)CCC(C(F)(F)F)C3=O)cs1 (stereo not shown) [KG-0318]
1 to 1000 µM	N#Cc1cc(Nc2ncc3c(n2)CCCCC3(F)F)cs1 [Compound 0031]
< 1 µM	N#Cc1cc(Nc2ncc3c(n2)CCCCC3=O)cc(OCc2ccncc2)c1 [Compound 0078]
> 1000 µM	N#Cc1cc(Nc2ncc3c(n2)CCCC/C3=N\O)cs1 [Compound 0053]
1 to 1000 µM	N#Cc1cc(Nc2ncc3c(n2)CCCCC3=O)cc(OCCN)c1 [Compound 0128]
1 to 1000 µM	N#Cc1cc(Nc2ncc3c(n2)CCCNC3=O)cs1 [Compound 0135]
< 1 µM	N#Cc1cc(Nc2ncc3c(n2)CCCCC3=O)cc(OCc2cccnc2)c1 [Compound 0118]
1 to 1000 µM	N#Cc1cc(Nc2ncc3c(n2)CCCCC3=O)c(C(F)(F)F)s1 [KG-0337-0A]
1 to 1000 µM	CCC(CC)Oc1cc(C#N)cc(Nc2ncc3c(n2)CCCCC3=O)c1 [Compound 0101]
< 1 µM	O=C1CCCCc2nc(Nc3ccc(-c4nnn[nH]4)cc3)ncc21 [Compound 0036]
1 to 1000 µM	N#Cc1cc(Nc2ncc3c(n2)C2CCC(C2)C3=O)cs1 (stereo not shown) [Compound 0040]
> 1000 µM	CO/N=C1\CCCc2nc(Nc3cccc(C#N)c3)ncc21 [KG-0260-0]
< 1 µM	N#Cc1cc(Nc2ncc3c(n2)CCCC3=O)cs1 [KG-0254-0A]
1 to 1000 µM	CCCc1cc(C#N)cc(Nc2ncc3c(n2)CCCCC3=O)c1 [Compound 0161]
< 1 µM	N#Cc1cc(Nc2ncc3c(n2)CCCCC3=O)cc(OCc2ccc(CO)cc2)c1 [Compound 0082]
1 to 1000 µM	O=C1CCCCc2nc(Nc3csc(-c4nnn[nH]4)c3)ncc21 [Compound 0033]
< 1 µM	N#Cc1cc(Nc2ncc3c(n2)CCC(O)C3=O)cs1 (stereo not shown) [KG-0317]
1 to 1000 µM	Cn1cc(Nc2ncc3c(n2)CCCCC3=O)cc1C#N [Compound 0057]
< 1 µM	Cc1ccc(COc2cc(C#N)cc(Nc3ncc4c(n3)CCCCC4=O)c2)cc1 [Compound 0074]
< 1 µM	N#CC(C#N)=C1CCCCc2nc(Nc3csc(C#N)c3)ncc21 [Compound 0034]
1 to 1000 µM	N#Cc1cc(Nc2ncc3c(n2)CCCCC3=O)cn1Cc1ccccc1 [Compound 0058]

SMILES	IC50
N#Cc1cc(Nc2ncc3c(n2)CCCCC3=O)cs1 [KG-0338]	< 1 µM

Same assay, conditions: Normalized in vitro IC50, Table 1; diaphorase-coupled biochemical assay, normalization to an intraplate control

IC50	SMILES
1 to 1000 µM	O=C1CCCc2nc(Nc3cccc(OCc4ccccc4)c3)ncc21 [KG-0252-0]
1 to 1000 µM	O=C1CCCc2nc(Nc3cccc(CO)c3)ncc21 [KG-0240-0]
1 to 1000 µM	O=C1CCCc2nc(Nc3cccc(Br)c3)ncc21 [KG-0167]
1 to 1000 µM	O=C1CCCc2nc(Nc3cccc(C4CC4)c3)ncc21 [KG-0203-0]
1 to 1000 µM and > 1000 µM	CC(Nc1ncc2c(n1)CCCC2=O)c1ccccc1 (stereo not shown) [KG-0165-0]
1 to 1000 µM	O=C1CCCc2nc(Nc3cccc(C(F)(F)F)c3)ncc21 [KG-0063-0]
< 1 µM	O=C1CCCc2nc(Nc3ccc4[nH]ncc4c3)ncc21 [KG-0232-0]
1 to 1000 µM	O=C1CCCc2nc(Nc3ccc4scnc4c3)ncc21 [KG-0227-0]
< 1 µM	N#Cc1cccc(Nc2ncc3c(n2)CCC(Br)C3=O)c1 (stereo not shown) [KG-0206-0]
< 1 µM	O=C1CCCc2nc(Nc3cccc(F)c3)ncc21 [KG-0061-0]

Same assay, conditions: Normalized in vitro IC50, Table 1A; diaphorase-coupled biochemical assay, normalization to an intraplate control

IC50	SMILES
1 to 1000 µM	COC(=O)c1ccc(Nc2ncc3c(n2)CCCCC3=O)cc1 [Compound 0022]
1 to 1000 µM	O=C1CCCCc2nc(Nc3ccccc3F)ncc21 [Compound 0015]
1 to 1000 µM	N#CCc1cccc(Nc2ncc3c(n2)CCCCC3=O)c1 [Compound 0024]
1 to 1000 µM	O=C1CCCCc2nc(Nc3ccc(Br)cc3)ncc21 [Compound 0003]
1 to 1000 µM	N#CCc1ccc(Nc2ncc3c(n2)CCCCC3=O)cc1 [Compound 0026]
1 to 1000 µM	CC(C)c1ccc(Nc2ncc3c(n2)CCCCC3=O)cc1 [Compound 0007]
1 to 1000 µM	Cc1ccc(Nc2ncc3c(n2)CCCCC3=O)cc1 [Compound 0005]
1 to 1000 µM	COc1ccc(Oc2cc(C#N)cc(Nc3ncc4c(n3)CCCCC4=O)c2)cc1 [Compound 0086]
